Consider 2 compounds from US5128363A, “Trifluoromethoxy substituted 1,3,4,9-tetrahydropyrano-[3,4-b]indole-1-acetic acids” (American Home Products Corporation, priority 1990, dated 1992).

The inhibition is the drop in the measured response relative to a control, in per cent. One may read the ED50 as the dose that gives a 50% effect, or the effect in half of the subjects.

Data set [1] concerns rats injected intradermally in the left hind paw with Freund's complete adjuvant. Briefly: Preventative Adjuvant Edema. The data set is classed as in vivo, Male Sprague Dawley rats. As to conditions: Rattus norvegicus, po, 25 mg/kg p.o., edema volume day 3 vs day 0, read-out: Preventative Adjuvant Edema, percent inhibition. As to the method:
This test is a primary screen for anti-inflammatory drugs.
Male Sprague Dawley rats (180-200 g) are used. The animals have free access to water but food is withdrawn 18 hours before testing.
Drug Preparations and Administration:
Freund's complete adjuvant is prepared by suspending 5 mg of killed and dried Mycobacterium butyricum (Difco) in 1 mL mineral oil. The test compounds are dissolved, or suspended in 0.5% Tween 80 in distilled water according to their solubility. For primary screening all drugs are administered by gastric gavage at the arbitrary dosage of 25 mg/kg, p.o. in a volume of 0.5 mL/100 g body weight to groups of 10 animals.
The method is essentially that described by Wax et al, J. Pharmacol. Exp. Ther., 192, 166-171 (1975). Groups of rats are injected intradermally in the left hind paw with 0.1 mL of Freund's complete adjuvant. […] The injected hind paw volume is measured before the injection of adjuvant and 24 hrs. after the last drug administration (day 3) by means of a plethysmometer (Buxco Electronics Inc.). […]
The mean edema volume (expressed as mL±SEM) is calculated for each group and the percentage protection conferred by the drug is calculated: [formula] where c is the mean edema volume for the vehicle-treated (0.5% Tween 80 in distilled water) controls and t is the means edema volume for the drug treated group.

Data set [2] deals with mice injected with a chemical irritant. Briefly: Phenylbenzoquinone-induced Writhing in Mice. The data set is classed as in vivo, Male Swiss albino mice. As to conditions: Mus musculus, po; for ED50: read-out: Phenylquinone Writhing in Mice, ED50. As for the experimental part:
A further test used to determine the utility of the compounds of the present invention is designated: Drug Effects on Phenylbenzoquinone-induced Writhing in Mice.
The objective of this test is to determine the ability of test drugs to inhibit the nociceptive (pain) response of mice injected with a chemical irritant. This test is a primary screen for both peripheral and centrally acting analgesic drugs.
Male Swiss albino mice (15-25 g). The animals are fasted for 18 hours prior to use but have free access to water.
Drug Preparation and Administration:
Drugs are dissolved or suspended according to their solubility in 0.5% Tween 80 in distilled water. They are administered by gastric gavage in a volume of 5 mL/kg. For primary screening all drugs are administered at the arbitary dosage of 10 mg/kg, p.o. to a group of 10 mice.
A modification of the method of Siegmund et al, Proc. Soc. Exp. Biol. Med., 95, 729-731 (1957) is used. Groups of 5 mice are dosed with the test compound or vehicle control. Sixty minutes later the animals are injected i.p. with 0.3 mL/20 g body weight of a 0.02% solution of phenylbenzoquinone (PBQ; 2-phenyl-1,4-benzoquinone) and placed in individual observation boxes. The number of writhing or abdominal squirming movements made by each mouse during the following 15 min. period is counted. The experiment is repeated with another group of 5 mice and the mean number of writhes per mouse for a group of 10 mice is calculated.
Drug treated and vehicle-treated control groups are compared and the percentage protection conferred by the drug is calculated: [formula] where c=mean number of writhes in the control group where t=mean number of writhes in the test drug group
A general note: Writhing tests count abdominal constrictions after an irritant is injected.

Data set [3] deals with rats with established adjuvant arthritis. Briefly: Curative Adjuvant Arthritis. The format is in vivo, Male inbred Wistar Lewis rats. Particulars: for Injected Paw Edema / Non-Injected Paw Edema: change day 16 to day 25; for Body Weight Change: day 16 to day 25. An excerpt:
An additional test used to determine the utility of the compounds of the present invention is designated: Curative Adjuvant Arthritis. The objective of this test is to evaluate the ability of drugs to decrease edema in rats with established adjuvant arthritis in order to characterize further the anti-inflammatory activity of the compounds of the present invention. Species Male inbred Wistar Lewis rats with an initial body weight of 180-200 g were used. The animals had free access to food and water throughout the test. Drug Preparations and Administration Freund's Complete Adjuvant (FCA) was prepared by suspending 5 mg killed and dried Mycobacterium butyricum (Difco) in 1 mL mineral oil. The test compounds were dissolved, or suspended with a few drops of Tween 80, in distilled water according to their solubility. […] The volume of both hind paws were measured and body weight recorded at that time. On day 16 after FCA injection the volume of both hind paws were again measured. […] Mean body weight for each group was recorded. Drug or vehicle treatment was initiated on day 16. Animals were dosed daily from day 16 to day 25 (i.e. a total of […]). The volume of both hind paws and the body weight of the animal was recorded 2 hours after the last drug administration. Vehicle treated arthritic animals acted as a vehicle-treated control group and animals treated with etodolac (3 mg/kg po) acted as a positive control group. […] The ED50, or dose which causes such an effect in 50% animals, is calculated by probit analysis.

For `CCC1(CC(=O)O)OCCc2c1[nH]c1cc(OC(F)(F)F)ccc21` (centres unmarked) [1-Ethyl-1,3,4,9-tetrahydro-7-(trifluoromethoxy)-pyrano[3,4-b]indole-1-acetic Acid], the inhibition at 25 mg/kg in data set [1] amounted to 88%. Also, the inhibition at 10 mg/kg in data set [2] (10 mg/kg p.o., read-out: Phenylquinone Writhing in Mice, percent inhibition) is 47%. In addition, in data set [2], the 50% effective dose (ED50) was 24 mg/kg. In data set [3] (0.3 mg/kg/day p.o.), the “Injected Paw Edema” value was “+0.53 mL”, the “Non-Injected Paw Edema” value was “+1.21 mL” and the “Body Weight Change” value is given as “+2 g”. Also, in data set [3] (1 mg/kg/day p.o.), the “anti-inflammatory effect relative to etodolac” value was “intermediate between that produced by 1 and 3 mg/kg etodolac”; the “Injected Paw Edema” value is -0.18 mL; the “Non-Injected Paw Edema” value is on record as “+0.35 mL”; the “Body Weight Change” value was “+2 g”. In data set [3] (3 mg/kg/day p.o.), the “Injected Paw Edema” value is -0.60 mL, the “Non-Injected Paw Edema” value is listed as “+0.11 mL” and the “Body Weight Change” value is on record as “+20 g”. Further, in data set [3] (highest dose, 3 mg/kg/day), the “health as assessed by body weight gain” value was “appeared healthy”. The “potency relative to etodolac” value in data set [3] (more potent than etodolac, curative adjuvant arthritis) was “approximately 2 fold”.

As for `CCc1cccc2c3c([nH]c12)C(CC)(CC(=O)O)OCC3` (centres unmarked) [etodolac, reference compound], in data set [1], the inhibition at 25 mg/kg worked out at 68%. Moreover, the ED50 in data set [2] stood at 168 mg/kg. In data set [3] (0.3 mg/kg/day p.o.), the “Injected Paw Edema” value is recorded as “+1.12 mL”, the “Non-Injected Paw Edema” value is on record as “+1.86 mL” and the “Body Weight Change” value is listed as -3 g. For the same compound, in data set [3] (1 mg/kg/day p.o.), the “Injected Paw Edema” value was “+0.40 mL”, the “Non-Injected Paw Edema” value is reported as “+1.14 mL” and the “Body Weight Change” value is -9 g. In addition, in data set [3] (3 mg/kg/day p.o.), the “Injected Paw Edema” value is listed as -0.28 mL, the “Non-Injected Paw Edema” value is given as “+0.51 mL” and the “Body Weight Change” value is listed as “+10 g”.
